Test results as given in US20180353483A1, “PHARMACEUTICAL COMPOSITIONS AND METHODS FOR INDOLEAMINE, 2, 3-DIOXYGENASE INHIBITION AND INDICATIONS THEREFOR” (Incyte Corporation, priority 2015, published 2018).
Like-named read-outs stand apart in the source and are kept apart here.

Assay: Pharmacokinetics of Compound 1 in combination with MK-3475 in subjects with various cancers
Type: in vivo, human
Experimental: The subjects were not limited to a specific cancers and study include subjects with various cancers. […] One treatment cycle consisted of 21 days. […] Additional subjects were enrolled in a cohort to achieve the minimum of 3 evaluable subjects if dropouts or dose interruptions or reductions occur that result in a subject being non-evaluable for DLTs. […] An additional safety cohort was opened at 100 mg BID in parallel to 300 mg BID being tested. This may also be limited to subjects with melanoma, NSCLC, or specific cancer types from among those included in Phase 1. The RP2D was selected from the evaluated safety expansions.
If a dose was missed by more than 4 hours, that dose was skipped and was resumed at the scheduled time.
Pharmacokinetic samples were obtained at the visits of Cycle 1 Day 1, Cycle 1 Day 8 and Cycle 2 Day 1. […] The exact date and time of the PK blood draws were recorded in the eCRF along with the date and time of the last dose of study drug and details of the last meal preceding the blood draw.
The planned PK time points were used for preliminary PK analyses.

[1] = subjects with dose reduction before C4D1, 50 mg BID, C1D8, mean ± SD

SMILES: NS(=O)(=O)NCCNc1nonc1C(=NO)Nc1ccc(F)c(Br)c1 [Compound 1, 4-({2-[(aminosulfonyl)amino]ethyl}amino)-N-(3-bromo-4-fluorophenyl)-N′-hydroxy-1,2,5-oxadiazole-3-carboximidamide]
- AUC(0-t) (human, plasma, oral, 100 mg, Diagnosis DLBCL, first dose, geometric mean, read-out: AUC0-t): 1.9 µM·h
- Cmax (human, plasma, oral, 100 mg, Diagnosis DLBCL, first dose, mean ± SD): 0.732 ± 0.37 µM
- tmax (human, plasma, oral, 100 mg, Diagnosis DLBCL, first dose, median, read-out: tmax): 3 h
- Cmax (human, plasma, oral, 100 mg, Diagnosis GU, first dose, geometric mean): 0.878 µM
- AUC(0-t) (human, plasma, oral, 100 mg, Diagnosis GU, first dose, geometric mean, read-out: AUC0-t): 2.71 µM·h
- Cmax (human, plasma, oral, 100 mg, Diagnosis GU, first dose, mean ± SD): 0.986 ± 0.492 µM
- AUC(0-t) (human, plasma, oral, 100 mg, Diagnosis GU, first dose, mean ± SD, read-out: AUC0-t): 2.96 ± 1.28 µM·h
- AUC(0-t) (human, plasma, oral, 100 mg, Diagnosis MEL, first dose, geometric mean, read-out: AUC0-t): 2.37 µM·h
- Cmax (human, plasma, oral, 100 mg, Diagnosis MEL, first dose, mean ± SD): 0.87 ± 0.347 µM
- AUC(0-t) (human, plasma, oral, 100 mg, Diagnosis MEL, first dose, mean ± SD, read-out: AUC0-t): 2.48 ± 0.773 µM·h
- Cmax (human, plasma, oral, 100 mg, Diagnosis NSCLC PD-L1 High, first dose, geometric mean): 0.878 µM
- AUC(0-t) (human, plasma, oral, 100 mg, Diagnosis NSCLC PD-L1 High, first dose, geometric mean, read-out: AUC0-t): 2.62 µM·h
- Cmax (human, plasma, oral, 100 mg, Diagnosis NSCLC PD-L1 High, first dose, mean ± SD): 1.02 ± 0.573 µM
- AUC(0-t) (human, plasma, oral, 100 mg, Diagnosis NSCLC PD-L1 High, first dose, mean ± SD, read-out: AUC0-t): 2.88 ± 1.3 µM·h
- tmax (human, plasma, oral, 100 mg, Diagnosis NSCLC PD-L1 High, first dose, median, read-out: tmax): 1.5 h
- Cmax (human, plasma, oral, 100 mg, Diagnosis NSCLC PD-L1 Low/NE, first dose, geometric mean): 0.857 µM
- AUC(0-t) (human, plasma, oral, 100 mg, Diagnosis NSCLC PD-L1 Low/NE, first dose, geometric mean, read-out: AUC0-t): 2.66 µM·h
- AUC(0-t) (human, plasma, oral, 100 mg, Diagnosis NSCLC PD-L1 Low/NE, first dose, mean ± SD, read-out: AUC0-t): 2.77 ± 0.839 µM·h
- Cmax (human, plasma, oral, 100 mg, Diagnosis OC, first dose, geometric mean): 0.886 µM
- AUC(0-t) (human, plasma, oral, 100 mg, Diagnosis OC, first dose, geometric mean, read-out: AUC0-t): 2.99 µM·h
- Cmax (human, plasma, oral, 100 mg, Diagnosis OC, first dose, mean ± SD): 0.967 ± 0.405 µM
- AUC(0-t) (human, plasma, oral, 100 mg, Diagnosis OC, first dose, mean ± SD, read-out: AUC0-t): 3.16 ± 1.1 µM·h
- tmax (human, plasma, oral, 100 mg, Diagnosis RCC, first dose, individual values of 2 subjects, read-out: tmax): 3 h
- Cmax (human, plasma, oral, 100 mg, Diagnosis SCCHN, first dose, geometric mean): 0.649 µM
- AUC(0-t) (human, plasma, oral, 100 mg, Diagnosis SCCHN, first dose, geometric mean, read-out: AUC0-t): 2.06 µM·h
- Cmax (human, plasma, oral, 100 mg, Diagnosis SCCHN, first dose, mean ± SD): 0.769 ± 0.439 µM
- Cmax (human, plasma, oral, 100 mg, Diagnosis TNBC, first dose, geometric mean): 0.898 µM
- AUC(0-t) (human, plasma, oral, 100 mg, Diagnosis TNBC, first dose, geometric mean, read-out: AUC0-t): 2.82 µM·h
- Cmax (human, plasma, oral, 100 mg, Diagnosis TNBC, first dose, mean ± SD): 1.03 ± 0.574 µM
- AUC(0-t) (human, plasma, oral, 100 mg, Diagnosis TNBC, first dose, mean ± SD, read-out: AUC0-t): 3.08 ± 1.39 µM·h
- AUC(0-t) (human, plasma, oral, 100 mg, by dose, 100 mg BID, steady state C1D8, geometric mean, read-out: AUC0-12 h (converted)): 3.57 µM·h
- AUC(0-t) (human, plasma, oral, 100 mg, by dose, 100 mg BID, steady state C1D8, mean ± SD, read-out: AUC0-12 h (converted)): 3.82 ± 1.37 µM·h
- AUC(0-t) (human, plasma, oral, 100 mg, by dose, 100 mg, first dose, mean ± SD, read-out: AUC0-t): 2.47 ± 0.861 µM·h
- AUC(0-t) (human, plasma, oral, 300 mg, Cohort 6, 300 mg BID, steady state C1D8, geometric mean, read-out: AUC0-12 h (converted)): 11.3 µM·h
- AUC(0-t) (human, plasma, oral, 300 mg, Cohort 6, 300 mg BID, steady state C1D8, mean ± SD, read-out: AUC0-12 h (converted)): 12.3 ± 6.09 µM·h
- Cmax (human, plasma, oral, 300 mg, Cohort 6, 300 mg, first dose, geometric mean): 1.79 µM
- AUC(0-t) (human, plasma, oral, 300 mg, Cohort 6, 300 mg, first dose, geometric mean, read-out: AUC0-t): 6.92 µM·h
- Cmax (human, plasma, oral, 300 mg, Cohort 6, 300 mg, first dose, mean ± SD): 2.22 ± 1.72 µM
- AUC(0-t) (human, plasma, oral, 300 mg, Cohort 6, 300 mg, first dose, mean ± SD, read-out: AUC0-t): 7.47 ± 3.32 µM·h
- AUC(0-t) (human, plasma, oral, 300 mg, Cohort 7, 300 mg BID, steady state C1D8, geometric mean, read-out: AUC0-12 h (converted)): 11.3 µM·h
- Cmax (human, plasma, oral, 300 mg, Cohort 7, 300 mg BID, steady state C1D8, mean ± SD): 2.75 ± 1.22 µM
- AUC(0-t) (human, plasma, oral, 300 mg, Cohort 7, 300 mg BID, steady state C1D8, mean ± SD, read-out: AUC0-12 h (converted)): 12.2 ± 5.92 µM·h
- Cmax (human, plasma, oral, 300 mg, Cohort 7, 300 mg, first dose, geometric mean): 2.17 µM
- AUC(0-t) (human, plasma, oral, 300 mg, Cohort 7, 300 mg, first dose, geometric mean, read-out: AUC0-t): 6.88 µM·h
- Cmax (human, plasma, oral, 300 mg, Cohort 7, 300 mg, first dose, mean ± SD): 2.33 ± 0.925 µM
- AUC(0-t) (human, plasma, oral, 300 mg, Cohort 7, 300 mg, first dose, mean ± SD, read-out: AUC0-t): 7.38 ± 2.86 µM·h
- AUC(0-t) (human, plasma, oral, 300 mg, by dose, 300 mg BID, steady state C1D8, geometric mean, read-out: AUC0-12 h (converted)): 11.3 µM·h
- Cmax (human, plasma, oral, 300 mg, by dose, 300 mg BID, steady state C1D8, mean ± SD): 2.74 ± 1.19 µM
- AUC(0-t) (human, plasma, oral, 300 mg, by dose, 300 mg BID, steady state C1D8, mean ± SD, read-out: AUC0-12 h (converted)): 12.3 ± 5.81 µM·h
- AUC(0-t) (human, plasma, oral, 300 mg, by dose, 300 mg, first dose, geometric mean, read-out: AUC0-t): 6.89 µM·h
- AUC(0-t) (human, plasma, oral, 300 mg, by dose, 300 mg, first dose, mean ± SD, read-out: AUC0-t): 7.41 ± 2.95 µM·h
- Cmax (human, plasma, oral, 300 mg, subjects with dose reduction before C4D1, 300 mg BID, C1D8, geometric mean): 3 µM
- AUC(0-t) (human, plasma, oral, 300 mg, subjects with dose reduction before C4D1, 300 mg BID, C1D8, geometric mean, read-out: AUC0-12 h (converted)): 13.3 µM·h
- Cmax (human, plasma, oral, 300 mg, subjects with dose reduction before C4D1, 300 mg BID, C1D8, mean ± SD): 3.18 ± 1.28 µM
- AUC(0-t) (human, plasma, oral, 300 mg, subjects with dose reduction before C4D1, 300 mg BID, C1D8, mean ± SD, read-out: AUC0-12 h (converted)): 14.6 ± 7.4 µM·h
- dose proportionality of exposures (non-compartmental analysis): approximate dose-proportional exposures
- AUC0-12 h (subjects with dose reduction before C4D1, 50 mg BID, C1D8, geometric mean): (2.29) μM * h
- AUC0-12 h [1]: 2.41 ± 0.980 µM·h
- CL/F [1]: 52.0 ± 17.1 L/h
- tmax (subjects with dose reduction before C4D1, 50 mg BID, C1D8, median): 2.00 h
- CL/F (subjects with dose reduction before C4D1, 300 mg BID, C1D8, mean ± SD): 55.4 ± 23.0 L/h
- tmax (subjects with dose reduction before C4D1, 300 mg BID, C1D8, median): 2.00 h
